Columns and labels:
mtDNA [1] = assay: DAPI staining of samples; type: binding
Excerpt: In addition to performing transposition and ATAC-seq, the samples were also stained. […] DAPI stained DNA, but not at certain locations.

mtDNA [2] = assay: ATAC-seq reads mapped to mtDNA after contacting the sample with dye; type: biochemical; settings: for Effect on mitochondrial DNA reads: ATAC-seq, increasing dye concentrations (FIGS. 2A-2C); for % Mapped to mtDNA: transposition and ATAC-seq
Description: (§1) A sample was obtained having both nuclear DNA and mtDNA. The sample was separated into various aliquots, and each aliquot was contacted with Hoechst 33258 dye in various concentrations, including 8 μM, 80 μM, and 800 μM. Each aliquot was then subjected to transposition and ATAC-seq, and the DNA reads were analyzed.
(§2) As shown in FIGS. 2A-2C, Hoechst dye selectively stained mtDNA, preventing transposition into mtDNA, but allowing transposition of nuclear DNA. […] The methods and compositions may be used for bulk ATAC-seq or single cell ATAC-seq to inhibit, reduce, or eliminate undesired mtDNA sequencing reads.

gDNA (nuclear) = assay: ATAC-seq reads mapped to nuclear gDNA after contacting the sample with dye; type: biochemical; settings: transposition and ATAC-seq
Description: as §1, §2

nucleosome positioning = assay: ATAC-seq profiles (nucleosome positioning) with dyes compared to no dye control; type: biochemical; settings: FIG. 4; compared to the no dye control
Description: A sample was obtained having both nuclear DNA and mtDNA. The sample was separated into various aliquots, and each aliquot was contacted with a different dye in various concentrations. Five different dyes were used, including Hoechst (at concentrations of 50 μM, 25 μM, 12 μM, 6 μM, 3 μM, and 0.6 μM), SYBR Gold (at concentrations of 500 μM, 50 μM, 5 μM, 0.5 μM, and 0.1 μM), Sytox Orange (at concentrations of 500 μM, 50 μM, 5 μM, 0.5 μM, and 0.1 μM), PicoGreen (at concentrations of 100 μM, 10 μM, 1 μM, 0.1 μM, and 0.02 μM), and Qubit (at concentrations of 100 μM, 10 μM, 1 μM, 0.1 μM, and 0.02 μM), as shown in FIGS. 3A-3C. Another aliquot was prepared that was not exposed to any dye. Each aliquot was then subjected Nextera transposition and products were visualized on a gel. FIG. 3A depicts the gel for Hoechst and SYBR Gold. FIG. 3B depicts the gel for Sytox Orange and PicoGreen, and FIG. 3C depicts the gel for Qubit and no dye. High molecular weight DNA products are indicative of inefficient transposition.
Hoechst allows relatively unbiased ATAC-seq profiling while not changing nucleosome positioning.

[3] = Concentration of Hoechst 800 μM

Row | Compound | Staining of mtDNA versus actively transcribed regions of nuclear DNA (mtDNA [1]) | Effect on mitochondrial DNA reads (mtDNA [2]) | Effect on mitochondrial DNA reads (mtDNA [2]; listed as Hoechst dye) | % Mapped to mtDNA (mtDNA [2]; Concentration of Hoechst 8 μM) [%] | % Mapped to mtDNA (mtDNA [2]; Concentration of Hoechst 80 μM) [%] | % Mapped to mtDNA (mtDNA [2]; [3]) [%] | % Mapped to gDNA (nuclear) (gDNA (nuclear); Concentration of Hoechst 8 μM) [%] | % Mapped to gDNA (nuclear) (gDNA (nuclear); Concentration of Hoechst 80 μM) [%] | % Mapped to gDNA (nuclear) (gDNA (nuclear); [3]) [%] | Effect on ATAC-seq profiles (nucleosome positioning) (nucleosome positioning)
1 | N=C(N)c1ccc(-c2cc3ccc(C(=N)N)cc3[nH]2)cc1 [DAPI, 4′, 6-diamidino-2-phenylindole] | staining of mtDNA took place but not of actively transcribed (ATAC) regions of nuclear DNA | – | – | – | – | – | – | – | – | –
2 | CN1CCN(c2ccc3[nH]c(-c4ccc5[nH]c(-c6ccc(O)cc6)nc5c4)nc3c2)CC1 [Hoechst, Hoechst 33258] | – | reduces mitochondrial DNA reads | decreasing mtDNA reads | 32 | 11 | 0 | 68 | 89 | 100 | does not alter the ATAC-seq profiles

— patent US20250341026A1, “METHODS AND MEANS FOR PREPARING A LIBRARY FOR SEQUENCING” (Illumina, Inc., priority 2018, published 2025)
